Measured values: ChEMBL document CHEMBL3611990, “Identification of Purines and 7-Deazapurines as Potent and Selective Type I Inhibitors of Troponin I-Interacting Kinase (TNNI3K)” (J Med Chem, 2015)
pIC50, pKd: −log10 of the molar value. Values after ≈ are worked out from the molar mass of the structure shown.

Tests used:
[1] = biological target: T1, Serine/threonine-protein kinase TNNI3K (Homo sapiens, UniProt Q59H18); assay: Displacement of 5-({[2-({[3-({4-[(5-hydroxy-2-methylphenyl)amino]-2-pyrimidinyl}amino)phenyl]carbonyl}amino)-ethyl]amino}carbonyl)-2-(6-hydroxy-3-oxo-3H-xanthen-9-yl)benzoic acid from His6-MBP-TEV-full length human TNNI3K expressed in Baculovirus expression system after 60 mins by fluorescence polarization assay
T1 sequence (Q59H18 whole entry): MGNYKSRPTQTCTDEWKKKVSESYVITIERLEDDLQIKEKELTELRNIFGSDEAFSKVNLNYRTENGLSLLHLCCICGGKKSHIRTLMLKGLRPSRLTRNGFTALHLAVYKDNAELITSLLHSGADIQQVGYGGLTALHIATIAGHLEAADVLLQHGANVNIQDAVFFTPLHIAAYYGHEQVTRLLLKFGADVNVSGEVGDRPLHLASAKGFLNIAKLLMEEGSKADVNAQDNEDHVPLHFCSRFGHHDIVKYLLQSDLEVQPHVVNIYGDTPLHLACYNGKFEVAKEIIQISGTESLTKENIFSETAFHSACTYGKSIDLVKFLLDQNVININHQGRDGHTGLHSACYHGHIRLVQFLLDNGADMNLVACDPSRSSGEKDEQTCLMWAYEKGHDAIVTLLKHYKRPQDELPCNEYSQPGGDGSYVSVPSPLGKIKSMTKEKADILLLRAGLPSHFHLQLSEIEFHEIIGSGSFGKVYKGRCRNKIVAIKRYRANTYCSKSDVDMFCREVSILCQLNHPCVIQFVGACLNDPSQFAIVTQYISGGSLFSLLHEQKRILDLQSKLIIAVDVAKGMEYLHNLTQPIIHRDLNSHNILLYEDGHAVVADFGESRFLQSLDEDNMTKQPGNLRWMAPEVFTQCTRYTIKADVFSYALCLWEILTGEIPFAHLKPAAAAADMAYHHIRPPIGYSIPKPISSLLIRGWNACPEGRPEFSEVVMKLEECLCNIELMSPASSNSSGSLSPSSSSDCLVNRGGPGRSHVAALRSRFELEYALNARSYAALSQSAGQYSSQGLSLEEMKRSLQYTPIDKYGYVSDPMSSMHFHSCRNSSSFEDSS

[2] = biological target: Serine/threonine-protein kinase B-raf (Homo sapiens, UniProt P15056, V600E); assay: Inhibition of His6-tagged full length BRAF V600E mutant (2 to 766 residues) (unknown origin) expressed in Baculovirus expression system by BRAMA method
[3] = biological target: T1, Serine/threonine-protein kinase TNNI3K; assay: Binding affinity to TNNI3K (unknown origin)
Rattus norvegicus = assay: Dose normalized AUC in po dosed Sprague-Dawley rat by LC/MS/MS analysis; format: ADME, organism-based; settings: in vivo
[4] = Oral bioavailability in Sprague-Dawley rat by LC/MS/MS analysis; format: ADME, organism-based; settings: in vivo
[5] = Plasma clearance in Sprague-Dawley rat at 1 mg/kg, iv by LC/MS/MS analysis; format: ADME, organism-based
[6] = Volume of distribution at steady state in Sprague-Dawley rat by LC/MS/MS analysis; format: ADME, organism-based; settings: in vivo, read-out: Vdss
[7] = Aqueous solubility of the compound; format: physicochemical
[8] = biological target: T1, Serine/threonine-protein kinase TNNI3K; assay: Inhibition of human myc-tagged TNNI3K autophosphorylation overexpressed in HEKMSRII cells preincubated for 30 mins followed by pervanadate solution addition measured after 20 mins by DELFIA; format: cell-based

Serine/threonine-protein kinase B-raf, sequence (P15056 2-766 V600E limits assumed): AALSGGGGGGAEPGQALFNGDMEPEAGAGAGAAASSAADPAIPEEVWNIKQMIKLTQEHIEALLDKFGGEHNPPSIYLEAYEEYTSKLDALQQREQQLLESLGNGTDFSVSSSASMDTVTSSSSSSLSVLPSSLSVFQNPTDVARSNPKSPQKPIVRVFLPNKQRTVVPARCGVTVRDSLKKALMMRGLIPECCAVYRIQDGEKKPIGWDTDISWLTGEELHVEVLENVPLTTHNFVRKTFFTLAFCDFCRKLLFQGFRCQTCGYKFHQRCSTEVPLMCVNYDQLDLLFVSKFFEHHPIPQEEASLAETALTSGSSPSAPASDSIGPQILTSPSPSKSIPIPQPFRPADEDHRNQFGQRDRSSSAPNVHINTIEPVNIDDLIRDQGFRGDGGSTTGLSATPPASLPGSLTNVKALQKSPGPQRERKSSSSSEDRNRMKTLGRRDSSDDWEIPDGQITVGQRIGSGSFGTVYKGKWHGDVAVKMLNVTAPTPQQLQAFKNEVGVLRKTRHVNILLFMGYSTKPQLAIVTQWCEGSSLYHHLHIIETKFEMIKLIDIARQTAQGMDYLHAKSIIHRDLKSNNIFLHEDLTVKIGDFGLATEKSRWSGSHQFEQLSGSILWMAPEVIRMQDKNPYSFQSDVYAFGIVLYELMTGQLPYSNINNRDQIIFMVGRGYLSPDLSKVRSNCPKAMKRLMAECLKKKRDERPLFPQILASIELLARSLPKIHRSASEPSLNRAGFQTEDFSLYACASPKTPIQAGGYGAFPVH

| Structure (SMILES) | pIC50 [1] | pIC50 [2] | AUC/dose (Rattus norvegicus) [kg·h/L] | further results |
| --- | --- | --- | --- | --- |
| CNS(=O)(=O)c1cccc(Nc2ncnc3[nH]c(C(=O)O)cc23)c1 | 6.80 | 7.40 | – | – |
| CNS(=O)(=O)c1cccc(Nc2ncnc3[nH]cnc23)c1 | 6.30 | 7.49 | 0 | pKd [3]: 6.95 |
| CNS(=O)(=O)c1cccc(Nc2nc(F)nc3[nH]cnc23)c1 | 5.49 | – | – | – |
| CNS(=O)(=O)c1cccc(Nc2ncnc3c2ncn3C)c1 | < 4.60 | – | – | – |
| CNS(=O)(=O)c1cccc(Nc2nc(N)nc3[nH]cnc23)c1 | 5.10 | – | – | – |
| CNS(=O)(=O)c1cccc(Nc2nc(Cl)nc3[nH]cnc23)c1 | 4.80 | – | – | – |
| CNS(=O)(=O)c1cccc(Nc2ncnc3[nH]ncc23)c1 | 7.30 | – | – | bioavailability [4]: 5%; clearance [5]: 72 mL/min/kg |
| CNS(=O)(=O)c1cccc(Nc2ncnc3[nH]ccc23)c1 | 7.10 | 7.30 | 0.08 | Vd [6]: 1.4 L/kg; bioavailability [4]: 34%; solubility [7]: 50 µM (≈ 15.2 µg/mL); clearance [5]: 68 mL/min/kg |
| CNS(=O)(=O)c1cccc(Nc2ncnc3c2ccn3C)c1 | < 4.60 | – | – | – |
| CNS(=O)(=O)c1cccc(Nc2ccnc3[nH]ccc23)c1 | 5.10 | – | – | – |
| CNS(=O)(=O)c1cccc(Nc2ncnc3c2CC(=O)N3)c1 | 6.40 | – | – | – |
| CCNS(=O)(=O)c1cccc(Nc2ncnc3[nH]cnc23)c1 | 5.70 | – | – | – |
| NS(=O)(=O)c1cccc(Nc2ncnc3[nH]cnc23)c1 | 4.40 | – | – | – |
| O=S(=O)(NO)c1cccc(Nc2ncnc3[nH]cnc23)c1 | 4.70 | – | – | – |
| CN(C)S(=O)(=O)c1cccc(Nc2ncnc3[nH]cnc23)c1 | 5.10 | – | – | – |
| CCS(=O)(=O)c1cccc(Nc2ncnc3[nH]cnc23)c1 | 5.20 | – | – | – |
| CNS(=O)(=O)c1cc(Nc2ncnc3[nH]cnc23)ccc1C | 4.89 | – | – | – |
| CNS(=O)(=O)c1ccc(C)c(Nc2ncnc3[nH]cnc23)c1 | 6.30 | – | – | – |
| CNS(=O)(=O)c1cccc(N(C)c2ncnc3[nH]ccc23)c1 | 5.30 | – | – | – |

| Structure (SMILES) | pIC50 [1] | pIC50 [2] | AUC/dose (Rattus norvegicus) [kg·h/L] | further results |
| --- | --- | --- | --- | --- |
| CNS(=O)(=O)c1cccc(Oc2ncnc3[nH]ccc23)c1 | 4.80 | – | – | – |
| CNS(=O)(=O)c1cncc(Nc2ncnc3[nH]ccc23)c1 | 6.60 | – | – | – |
| CNS(=O)(=O)c1cccc(Nc2ncnc3[nH]cc(C)c23)c1 | 7.40 | 7.20 | 0.18 | – |
| CNS(=O)(=O)c1cccc(Nc2ncnc3[nH]cc(C(C)C)c23)c1 | 6.90 | 7.10 | 0.06 | – |
| CNS(=O)(=O)c1cccc(Nc2ncnc3[nH]cc(CC(C)C)c23)c1 | 6.90 | 7.40 | – | – |
| CNS(=O)(=O)c1cccc(Nc2ncnc3[nH]cc(F)c23)c1 | 6.90 | 7.10 | 0.28 | – |
| CNS(=O)(=O)c1cccc(Nc2ncnc3[nH]cc(Cl)c23)c1 | 7.49 | 7.89 | 0.39 | Vd [6]: 0.45 L/kg; clearance [5]: 20 mL/min/kg |
| CNS(=O)(=O)c1cccc(Nc2ncnc3[nH]cc(Br)c23)c1 | 7.49 | 8.30 | 0.55 | Vd [6]: 0.63 L/kg; clearance [5]: 23 mL/min/kg |
| CNS(=O)(=O)c1cccc(Nc2ncnc3[nH]cc(-c4ccccc4)c23)c1 | 7.40 | 8.40 | 0.05 | clearance [5]: 93 mL/min/kg |
| CNS(=O)(=O)c1cccc(Nc2ncnc3[nH]cc(-c4ccccc4Cl)c23)c1 | 7.40 | 8.00 | – | – |
| CNS(=O)(=O)c1cccc(Nc2ncnc3[nH]cc(-c4cccc(Cl)c4)c23)c1 | 7.20 | 9.00 | – | – |
| CNS(=O)(=O)c1cccc(Nc2ncnc3[nH]cc(-c4ccc(Cl)cc4)c23)c1 | 7.00 | 8.40 | 0.2 | clearance [5]: 65 mL/min/kg |
| CNS(=O)(=O)c1cccc(Nc2ncnc3[nH]cc(-c4ccc(OC)cc4)c23)c1 | 7.30 | 8.40 | 0.06 | – |
| CNS(=O)(=O)c1cccc(Nc2ncnc3[nH]cc(-c4ccncc4)c23)c1 | 7.00 | 7.49 | 0 | – |
| CNS(=O)(=O)c1cccc(Nc2ncnc3[nH]cc(-c4ccc(CN)cc4)c23)c1 | 7.49 | 8.22 | 0 | – |
| CNS(=O)(=O)c1cccc(Nc2ncnc3[nH]cc(-c4ccc(C(=O)O)cc4)c23)c1 | 7.00 | 7.80 | 0 | – |
| CNS(=O)(=O)c1cccc(Nc2ncnc3[nH]c(Br)cc23)c1 | 7.30 | 7.80 | 0.26 | – |
| CNS(=O)(=O)c1cccc(Nc2ncnc3[nH]c(-c4ccccc4)cc23)c1 | 7.60 | 9.00 | 0.01 | – |
| CNS(=O)(=O)c1cccc(Nc2ncnc3[nH]c(-c4ccccc4C)cc23)c1 | 7.89 | 8.22 | – | – |

| Structure (SMILES) | pIC50 [1] | pIC50 [2] | AUC/dose (Rattus norvegicus) [kg·h/L] | further results |
| --- | --- | --- | --- | --- |
| CNS(=O)(=O)c1cccc(Nc2ncnc3[nH]c(-c4cccc(C)c4)cc23)c1 | 7.89 | 9.00 | 0.01 | – |
| CNS(=O)(=O)c1cccc(Nc2ncnc3[nH]c(-c4ccc(C)cc4)cc23)c1 | 7.89 | 9.00 | – | – |
| CNS(=O)(=O)c1cccc(Nc2ncnc3[nH]c(-c4cccc(C(F)(F)F)c4)cc23)c1 | 7.20 | 8.22 | 0.14 | – |
| CNS(=O)(=O)c1cccc(Nc2ncnc3[nH]c(-c4ccc(O)cc4)cc23)c1 | 7.89 | 9.00 | – | – |
| CNS(=O)(=O)c1cccc(Nc2ncnc3[nH]c(-c4ccncc4)cc23)c1 | 7.70 | 9.00 | 0 | – |
| CNS(=O)(=O)c1cccc(Nc2ncnc3[nH]c4ccccc4c23)c1 | 7.00 | 7.40 | 0.03 | – |
| CNS(=O)(=O)c1ccc(C)c(Nc2ncnc3[nH]ccc23)c1 | 6.20 | – | – | – |
| CNS(=O)(=O)c1ccc(Cl)c(Nc2ncnc3[nH]ccc23)c1 | 7.70 | 7.49 | – | – |
| CNc1ccc(S(=O)(=O)NC)cc1Nc1ncnc2[nH]ccc12 | 5.20 | 6.00 | – | – |
| CNS(=O)(=O)c1ccc(N(C)C)c(Nc2ncnc3[nH]ccc23)c1 | 7.30 | 8.22 | 0.59 | bioavailability [4]: 100%; pIC50 [8]: 7.30; solubility [7]: 330 µM (≈ 114 µg/mL); clearance [5]: 30 mL/min/kg |
| CNS(=O)(=O)c1ccc(N2CCOCC2)c(Nc2ncnc3[nH]ccc23)c1 | 7.40 | 8.10 | 0.15 | pIC50 [8]: 7.00; clearance [5]: 39 mL/min/kg |
| CNS(=O)(=O)c1ccc(N(C)C)c(Nc2ncnc3[nH]cc(C)c23)c1 | > 8.00 | 9.30 | – | pIC50 [8]: 8.80 |
| CNS(=O)(=O)c1ccc(N(C)C)c(Nc2ncnc3[nH]cc(Br)c23)c1 | > 8.00 | 9.70 | 0.04 | pIC50 [8]: 9.15 |
| CNS(=O)(=O)c1ccc(N2CCOCC2)c(Nc2ncnc3[nH]cc(C)c23)c1 | 7.89 | 8.89 | – | pIC50 [8]: 8.10 |
| CNS(=O)(=O)c1ccc(N2CCOCC2)c(Nc2ncnc3[nH]cc(Br)c23)c1 | > 8.00 | 9.30 | 0.32 | pIC50 [8]: 8.20 |
| CNS(=O)(=O)c1ccc(N(C)C)c(Nc2ncnc3[nH]c(Br)cc23)c1 | 7.40 | 8.20 | 0.14 | pIC50 [8]: 7.40 |
| CNS(=O)(=O)c1ccc(N(C)C)c(Nc2ncnc3[nH]c(-c4cccc(C(F)(F)F)c4)cc23)c1 | 7.89 | 9.22 | – | pIC50 [8]: 7.80 |
| CNS(=O)(=O)c1ccc(N2CCOCC2)c(Nc2ncnc3[nH]c(Br)cc23)c1 | 6.90 | 8.10 | 0.09 | pIC50 [8]: 6.40 |
| CNS(=O)(=O)c1ccc(N2CCOCC2)c(Nc2ncnc3[nH]c(-c4cccc(C(F)(F)F)c4)cc23)c1 | 7.80 | 8.89 | – | pIC50 [8]: 8.00 |
